Measured values as given in patent EP0142732B1, “Pheophorbide derivatives and pharmaceutical preparations containing them” (TOYO HAKKA KOGYO KABUSHIKI KAISHA, priority 1983, dated 1985).

The compounds below were run on nitrosamine-induced cancer cells of the pancreas (assay: N2 pulsed laser spectro-fluorometry of removed organs after administration to tumour-bearing hamsters). Conditions: 24 hours after administration; 5 mg in 1 ml physiological saline.
Format: in vivo, golden hamsters
Protocol: Five mg of the test drug sodium 9-desoxo-9-hydroxy pheophorbide diluted in physiological saline (1 ml) was administered (1 ml) to golden hamsters (5 each for a group) 14-21 days after transplantation of nitrosamine-induced cancer cells of the pancreas, after which cancer cells and other organs were removed. N2-pulsed laser (N2 337 nm, 2 ns 400-1000 nm) was irradiated to each organ thus obtained to measure N2 pulsed laser spectro-fluorometry.
N2 pulsed laser spectro-fluorometry of each removed organ was measured 24 hours and 48 hours afterwards to investigate the wavelengths of 600 to 900 nm based on the peak wavelengths of NADH of 470 nm.
Golden hamsters (5 per one group) 14-21 days after transplantation of nitrosamine-induced cancer cells of the pancreas were administered 5 mg each of sodium 2-desethenyl-2-(1-hydroxyethyl) pheophorbide (sodium salt of (2)), sodium 2-desethynyl-2-(1-hydroxyethyl)-9-desoxo-9-hydroxy pheophorbide (sodium salt (3)), sodium 2-desethenyl-2-(1-acetyloxyethyl)-9-desoxo-9-acetyloxy pheophorbide (sodium salt of (4)), sodium ethylene glycol mono-10b-pheophorbate (sodium salt of (8)), disodium ethylene glycol di-10b-pheophorbate (sodium salt of (10)) and sodium N-phenylalanine 10b-methyl pheophorbid amide (sodium salt of (9)) respectively diluted with physiological saline (1 ml). Cancer cells and other organs were removed, irradiated with N2-pulsed laser (N2, 337 nm, 2 ns 400-1000 nm) to measure N2 pulsed laser spectro fluorometry. Using the. NADH peak wavelength of 470 nm as the reference, wavelengths in the range of from 600-900 nm were studied.
Various organs were removed 24 hours after administration and their N2 pulsed laser spectro-fluorometry was measured.

Row | Compound | accumulation in cancer cells and other organs (N2 pulsed laser spectro-fluorometry)
1 | C=Cc1c(C)c2cc3nc(c4c5[nH]c(cc6nc(cc1[nH]2)C(C)=C6CC)c(C)c5C(O)C4C(=O)OC)C(CCC(=O)O)C3C (stereo not shown) [9-Desoxo-9-hydroxy-pheophorbate (11), 9-desoxo-9-hydroxy-pheophorbide] | generally found in organs

Same assay, conditions: 48 hours after administration; 5 mg in 1 ml physiological saline

Row | Compound | accumulation in cancer cells and other organs (N2 pulsed laser spectro-fluorometry)
2 | C=Cc1c(C)c2cc3nc(c4c5[nH]c(cc6nc(cc1[nH]2)C(C)=C6CC)c(C)c5C(O)C4C(=O)OC)C(CCC(=O)O)C3C (stereo not shown) [9-Desoxo-9-hydroxy-pheophorbate (11), 9-desoxo-9-hydroxy-pheophorbide] | markedly accumulated in cancer cells alone but not in other cells

Same assay, conditions: sodium compounds; organs removed 24 hours after administration; N2 337 nm laser, 600-900 nm

Row | Compound | N2 pulsed laser spectro-fluorometry, wavelengths calculated using the NADH peak wavelength of 470 nm as the reference
3 | CCC1=C(C)c2cc3[nH]c(cc4nc(c5c6[nH]c(cc1n2)c(C)c6C(=O)C5C(=O)OC)C(CCC(=O)O)C4C)c(C)c3C(C)O (stereo not shown) [2-desethenyl-2-(1-hydroxyethyl)-pheophorbide] | 1.90
4 | C=Cc1c(C)c2cc3nc(c4c5[nH]c(cc6nc(cc1[nH]2)C(C)=C6CC)c(C)c5C(O)C4C(=O)OC)C(CCC(=O)O)C3C (stereo not shown) [9-Desoxo-9-hydroxy-pheophorbate (11), 9-desoxo-9-hydroxy-pheophorbide] | 0.93
5 | CCC1=C(C)c2cc3[nH]c(cc4nc(c5c6[nH]c(cc1n2)c(C)c6C(OC(C)=O)C5C(=O)OC)C(CCC(=O)O)C4C)c(C)c3C(C)OC(C)=O (stereo not shown) [2-Desethenyl-2-(1-acetyloxyethyl)-9-desoxo-9-acetyloxypheophorbide] | 0.48
6 | Monoacetylethylene glycol mono-10b-9-desoxo-9-hydroxy-pheophorbate | 1.20
7 | Monoacetylethylene glycol mono-10b-9-desoxo-9-acetyloxy-pheophorbate | 0.85
8 | C=Cc1c(C)c2cc3nc(c4c5[nH]c(cc6nc(cc1[nH]2)C(C)=C6CC)c(C)c5C(O)C4)C(CCC(=O)O)C3C (stereo not shown) [9-Desoxo-9-hydroxy-pyropheophorbide] | 0.98
9 | Ethylene glycol di-10b-2-desethenyl-2-(1-hydroxyethyl)-pheophorbate | 2.50
10 | C=Cc1c(C)c2cc3nc(c4c5[nH]c(cc6nc(cc1[nH]2)C(C)=C6CC)c(C)c5C(O)C4C(=O)NC(Cc1ccccc1)C(=O)O)C(CCC(=O)OC)C3C (stereo not shown) [N-Phenylalanine 10b-9-desoxo-9-hydroxy-methylpheophorbidamide] | 0.73
11 | 9-Desoxo-9-hydroxy-pheophorbide C | 0.32
12 | C=Cc1c(C)c2cc3nc(c4c5[nH]c(cc6nc(cc1[nH]2)C(C)=C6CC)c(C)c5C(O)C4C(=O)OCCOC(=O)C1c2c4nc(cc5[nH]c(cc6nc(cc7[nH]c2c(c7C)C1O)C(CC)=C6C)c(C=C)c5C)C(C)C4CCC(=O)O)C(CCC(=O)O)C3C (stereo not shown) [Ethylene glycol di-10b-9-desoxo-9-hydroxypheophorbate] | 2.50
13 | C=Cc1c(C)c2cc3nc(c4c5[nH]c(cc6nc(cc1[nH]2)C(C)=C6CC)c(C)c5C(=O)C4C(=O)OCCO)C(CCC(=O)O)C3C (stereo not shown) [ethylene glycol mono-10b-pheophorbate] | 1.72
14 | C=Cc1c(C)c2cc3nc(c4c5[nH]c(cc6nc(cc1[nH]2)C(C)=C6CC)c(C)c5C(O)C4C(=O)OCCO)C(CCC(=O)O)C3C (stereo not shown) [Ethylene glycol mono-10b-9-desoxo-9-hydroxy-pheophorbate] | 2.10
15 | C=Cc1c(C)c2cc3nc(c4c5[nH]c(cc6nc(cc1[nH]2)C(C)=C6CC)c(C)c5C(=O)C4C(=O)OCCOC(=O)C1C(=O)c2c(C)c4cc5nc(cc6[nH]c(cc7nc(c1c2[nH]4)C(CCC(=O)O)C7C)c(C)c6C=C)C(C)=C5CC)C(CCC(=O)O)C3C (stereo not shown) [Ethylene glycol di-10b-pheophorbate (10), ethylene glycol di-10b-pheophorbate] | 2.78
16 | C=Cc1c(C)c2cc3nc(c4c5[nH]c(cc6nc(cc1[nH]2)C(C)=C6CC)c(C)c5C(=O)C4)C(CCC(=O)O)C3C (stereo not shown) [Pyropheophorbide, reference compound] | 0.25
17 | CCC1=C(C)c2cc3[nH]c(cc4nc(c5c6[nH]c(cc1n2)c(C)c6C(O)C5C(=O)OC)C(CCC(=O)O)C4C)c(C)c3C(C)O (stereo not shown) [2-desethenyl-2-(1-hydroxyethyl)-9-desoxo-9-hydroxy-pheophorbide] | 3.13
18 | C=Cc1c(C)c2cc3nc(c4c5[nH]c(cc6nc(cc1[nH]2)C(C)=C6CC)c(C)c5C(OC(C)=O)C4C(=O)OC)C(CCC(=O)O)C3C (stereo not shown) [9-Desoxo-9-acetyloxy-pheophorbide, 9-desoxo-9-acetyloxy-pheophorbide] | 0.89
19 | C=Cc1c(C)c2cc3nc(c4c5[nH]c(cc6nc(cc1[nH]2)C(C)=C6CC)c(C)c5C(=O)C4C(=O)OCCOC(C)=O)C(CCC(=O)O)C3C (stereo not shown) [Monoacetylethylene glycol mono-10b-pheophorbate] | 1.30
20 | CCC1=C(C)c2cc3[nH]c(cc4nc(c5c6[nH]c(cc1n2)c(C)c6C(O)C5C(=O)OC)C(CCC(=O)O)C4C)c(C)c3C(C)OC(C)=O (stereo not shown) [2-Desethenyl-2-(1-acetyloxyethyl)-9-desoxo-9-hydroxy-pheophorbide] | 0.95
21 | Ethylene glycol di-10b-2-desethenyl-2-(1-hydroxyethyl)-9-desoxo-9-hydroxy-pheophorbate | 1.80
22 | C=Cc1c(C)c2cc3nc(c4c5[nH]c(cc6nc(cc1[nH]2)C(C)=C6CC)c(C)c5C(=O)C4C(=O)OC)C(CCC(=O)O)C3C (stereo not shown) [Pheophorbide (1), pheophorbide] | 0.78
23 | C=Cc1c(C)c2cc3nc(c4c5[nH]c(cc6nc(cc1[nH]2)C(C)=C6CC)c(C)c5C(=O)C4C(=O)NC(Cc1ccccc1)C(=O)O)C(CCC(=O)OC)C3C (stereo not shown) [N-phenylalanine 10b-methylpheophorbidamide] | 0.75

The compounds below were run on leukemic Molt 4 Cell (assay: Biochemiluminescence by single photoncounter system after laser irradiation (destruction of cancer cells)). Conditions: Homo sapiens, 100 µg/2 ml, incubated 24 hours at 37°C, He-Ne laser 630 nm, 10 min, 20 mW, read-out: cancer cells destroyed.
Format: cell-based
Protocol: Sodium 9-desoxo-9-hydroxy pheophorbide dissolved in physiological saline of respective concentrations (25 µg/2 ml, 50 µg/2 ml, […]) was added to leukemic Molt 4 Cell ([…] Cells) and the resultant product was incubated for 24 hours at 37°C.
Each incubated cell thus obtained was irradiated with laser (He-Ne gas, 630 nm, 10 min, 20 mW) and trace biochemiluminescence was measured by single photoncounter system.
Intensity of biochemiluminescence substantially correponds to the degree of destructive effect on cancer cells and thus by studying the biochemiluminescence by single photoncounter system, it is possible to predict the destructive effect on cancer cells.
Leukemic Molt 4 cell ([…] cells) was added with physiological saline containing sodium 2- desethenyl-2-(1-hydroxyethyl) pheophorbide (sodium salt of (2)) in respective concentrations ([…], 100 µg/2 ml) and then incubated (37°C, 24 hours). Incubated cells each were irradiated with laser ([…], 630 nm, 10 min, 20 mW) to investigate generation of biochemiluminescence by single photoncounter system by measuring biochemiluminescence; The intensity of biochemiluminescence by single photoncounter system substantially corresponds to the degree of destruction of the cancer cells. […]

Row | Compound | cytotoxicity at 50 µg/mL [%]
24 | CCC1=C(C)c2cc3[nH]c(cc4nc(c5c6[nH]c(cc1n2)c(C)c6C(=O)C5C(=O)OC)C(CCC(=O)O)C4C)c(C)c3C(C)O (stereo not shown) [2-desethenyl-2-(1-hydroxyethyl)-pheophorbide] | > 95
25 | C=Cc1c(C)c2cc3nc(c4c5[nH]c(cc6nc(cc1[nH]2)C(C)=C6CC)c(C)c5C(O)C4C(=O)OC)C(CCC(=O)O)C3C (stereo not shown) [9-Desoxo-9-hydroxy-pheophorbate (11), 9-desoxo-9-hydroxy-pheophorbide] | > 95
